Experimental findings from PMC10525445, “Antitrypanosomal Activity of 1,2,3-Triazole-Based Hybrids Evaluated Using In Vitro Preclinical Translational Models” (Biology, 2023) are described below.

By CC50 is commonly meant the concentration at which the toxic effect on the cells reaches its halfway point.

Data set [1] is described as follows: Cytotoxicity on VERO cell monolayers (CellTiter Glo, 72 h). Type of data set: cell-based. The conditions noted are these: African green monkey, VERO cell monolayers, ATP level, read-out: Cytotoxicity VERO Cells CC50. The protocol: (§1) VERO cells (Rio de Janeiro Cell Bank code 0245) were cultivated in RPMI 1640 medium supplemented with 10% fetal bovine serum (FBS) at 37 °C in a humidified atmosphere of 5% CO2. Confluent monolayers were dissociated with trypsin-EDTA solution (0.025%), and isolated cells were seeded on culture plates or flasks, depending on the experimental assay. The VERO cell cultures were used in cytotoxicity and phenotypic screening assays and for obtaining culture-derived trypomastigotes. The toxic effect of the triazole series was evaluated on VERO cell monolayers. After seeding for 24 hours, VERO cells were treated for 72 h at 37 °C with the 1,2,3-triazole derivatives and Bz, the reference drug, with a range of concentration from 15.62 to 500 µM. Controls were performed with a non-toxic concentration of dimethyl sulfoxide (DMSO; ≤0.1%) used in the experimental assays. Cell viability was determined by measuring ATP level using a CellTiter Glo kit. The luminescence read was performed using a Glomax microplate reader (Promega Corporation, Madison, WI, EUA). The cytotoxicity concentration 50 (CC50), the drug concentration that reduces cell viability by 50%, was calculated using linear regression. […] Cultures were exposed for 72 h to compound concentrations up to 500 µM, following the protocol mentioned above. At least 3 independent assays were performed in duplicate.
Background: ATP-based viability assays read luminescence as a measure of living cells.

Data set [2] in a line: Cardiotoxic effect on 3D cardiac spheroids. The format is cell-based, Swiss Webster mice. The conditions noted are these: Swiss Webster, mouse, 3D cardiac spheroids of primary fetal heart muscle cells, 3D cardiac microtissue, up to 500 µM, read-out: Toxicity 3D Culture (CC50). The protocol: (§2) Primary heart muscle cell cultures were obtained from fetuses of female Swiss Webster mice, as previously described. After heart removal and ventricle fragmentation, tissue fragments were dissociated in a trypsin and collagenase type II (Worthington Biochemical Corporation, Lakewood, USA) dissociation solution. For two-dimensional (2D) cultures, the isolated cardiac cells were seeded at a density of 5 × 10^4 cells/well in gelatin (0.1%)-coated 96-well white culture plates. Three-dimensional (3D) cardiac spheroids were obtained after seeding isolated heart muscle cells at a density of 2.5 × 10^4 cells/well in an agarose (1%)-coated 96-well U-bottom plate, as described in [35]. Heart muscle cells cultures were cultivated in Dulbecco’s modified Eagle medium (DMEM) supplemented with 7% FBS, 2.5 mM CaCl2, 2% embryo extract, and 1 mM L-glutamin and maintained at 37 °C in a humidified atmosphere of 5% CO2. All procedures with animals were approved by the Animal Care and Use Committee at the Oswaldo Cruz Institute (license L-017/2022).
as §1, with “The” for “VERO cells (Rio de Janeiro Cell Bank code 0245) were cultivated in RPMI 1640 medium supplemented with 10% fetal bovine serum (FBS) at 37 °C in a humidified atmosphere of 5% CO2. Confluent monolayers were dissociated with trypsin-EDTA solution (0.025%), and isolated cells were seeded on culture plates or flasks, depending on the experimental assay. The VERO cell cultures were used in cytotoxicity and phenotypic screening assays and for obtaining culture-derived trypomastigotes. The”

Data set [3] in a line: Cardiotoxic effect on 2D primary heart muscle cell culture. The conditions noted are these: Swiss Webster, mouse, primary fetal heart muscle cells, 2D monolayer culture, heart muscle cell monolayers, up to 500 µM, read-out: Toxicity 2D Culture (CC50). The format is cell-based, Swiss Webster mice. The protocol:
as §2
as §1, with “The” for “VERO cells (Rio de Janeiro Cell Bank code 0245) were cultivated in RPMI 1640 medium supplemented with 10% fetal bovine serum (FBS) at 37 °C in a humidified atmosphere of 5% CO2. Confluent monolayers were dissociated with trypsin-EDTA solution (0.025%), and isolated cells were seeded on culture plates or flasks, depending on the experimental assay. The VERO cell cultures were used in cytotoxicity and phenotypic screening assays and for obtaining culture-derived trypomastigotes. The”

For another data set, the system named is VERO cells. The data set can be described thus: Cytotoxicity on VERO cell monolayers (CellTiter Glo, 72 h). The conditions noted are these: ATP level. The format is cell-based. How it is done:
as §1

Data set [4] relates to 3D cardiac microtissue (heart muscle cells). The data set can be described thus: Cardiotoxic effect on 3D cardiac spheroids. Type of data set: cell-based, Swiss Webster mice. The conditions noted are these: 72 h, up to 500 µM, read-out: Toxicity 3D Culture (CC50). How it is done:
as §2
as §1, with “The” for “VERO cells (Rio de Janeiro Cell Bank code 0245) were cultivated in RPMI 1640 medium supplemented with 10% fetal bovine serum (FBS) at 37 °C in a humidified atmosphere of 5% CO2. Confluent monolayers were dissociated with trypsin-EDTA solution (0.025%), and isolated cells were seeded on culture plates or flasks, depending on the experimental assay. The VERO cell cultures were used in cytotoxicity and phenotypic screening assays and for obtaining culture-derived trypomastigotes. The”

The subject of data set [5] is heart muscle cells (2D culture). The data set can be described thus: Cardiotoxic effect on 2D primary heart muscle cell culture. The conditions noted are these: heart muscle cell monolayers, 72 h, up to 500 µM; read-out: Toxicity 2D Culture (CC50). Type of data set: cell-based, Swiss Webster mice. How it is done:
as §2
as §1, with “The” for “VERO cells (Rio de Janeiro Cell Bank code 0245) were cultivated in RPMI 1640 medium supplemented with 10% fetal bovine serum (FBS) at 37 °C in a humidified atmosphere of 5% CO2. Confluent monolayers were dissociated with trypsin-EDTA solution (0.025%), and isolated cells were seeded on culture plates or flasks, depending on the experimental assay. The VERO cell cultures were used in cytotoxicity and phenotypic screening assays and for obtaining culture-derived trypomastigotes. The”

On to `c1ccc(-c2cn(-c3ccccc3)nn2)cc1` [Triazole 1g, 1-(4-Diphenyl)-1H-1,2,3-triazole], for which the half-maximal cytotoxic concentration (CC50) at 72 h in data set [1], in data set [2] and in data set [3] was > 500 µM each time.

“4-Phenyl-1-(m-tolyl)-1H-1,2,3-triazole [Triazole 1f]”: the results for the CC50 (in the data set on VERO cells; in data set [4]; in data set [5]) were 86.8 ± 2.73 µM, > 500 µM and 111 ± 10.1 µM, respectively.

Regarding `COc1ccc(-n2cc(-c3ccccc3)nn2)cc1` [Triazole 1d, 1-(4-Methoxyphenyl)-4-phenyl-1H-1,2,3-triazole], the cytotoxic concentration (CC50) at 72 h in data set [1], in data set [2] and in data set [3] was > 500 µM throughout.
